Test results as given in patent publication US10487116B2, “Immunotherapy against several tumors, such as lung cancer, including NSCLC” (IMMATICS BIOTECHNOLOGIES GMBH, priority 2013, dated 2019).
Where two headings read alike, the source gives them in different places.

How the values were obtained:
CD8+ T cells = experiment: In vitro T-cell priming assay (aAPCs loaded with peptide/MHC and anti-CD28, pMHC multimer readout); format: cell-based, human; settings: for Wells: positive wells
Source text: In order to obtain information regarding the immunogenicity of the TUMAPs of the present invention, we performed investigations using an in vitro T-cell priming assay based on repeated stimulations of CD8+ T cells with artificial antigen presenting cells (aAPCs) loaded with peptide/MHC complexes and anti-CD28 antibody.
In order to perform in vitro stimulations by artificial antigen presenting cells loaded with peptide-MHC complex (pMHC) and anti-CD28 antibody, we first isolated CD8+ T cells from fresh HLA-A*02 leukapheresis products via positive selection using CD8 microbeads (Miltenyi Biotec, Bergisch-Gladbach, Germany) of healthy donors obtained from the Transfusion Medicine Tuebingen, Germany, after informed consent.
Isolated CD8+ lymphocytes or PBMCs were incubated until use in T-cell medium (TCM) consisting of RPMI-Glutamax (Invitrogen, Karlsruhe, Germany) supplemented with 10% heat inactivated human AB serum (PAN-Biotech, Aidenbach, Germany), 100 U/ml Penicillin/100 μg/ml Streptomycin (Cambrex, Cologne, Germany), 1 mM sodium pyruvate (CC Pro, Oberdorla, Germany), 20 μg/ml Gentamycin (Cambrex). 2.5 ng/ml IL-7 (PromoCell, Heidelberg, Germany) and 10 U/ml IL-2 (Novartis Pharma, Nurnberg, Germany) were also added to the TCM at this step.
Generation of pMHC/anti-CD28 coated beads, T-cell stimulations and readout was performed in a highly defined in vitro system using four different pMHC molecules per stimulation condition and 8 different pMHC molecules per readout condition.
All pMHC complexes used for aAPC loading and cytometric readout were derived from UV-induced MHC ligand exchange (Rodenko et al., 2006) with minor modifications. In order to determine the amount of pMHC monomer obtained by exchange we performed streptavidin-based sandwich ELISAs according to (Rodenko et al., 2006).
The purified co-stimulatory mouse IgG2a anti human CD28 Ab 9.3 (Jung et al., 1987) was chemically biotinylated using Sulfo-N-hydroxysuccinimidobiotin as recommended by the manufacturer (Perbio, Bonn, Germany). Beads used were 5.6 μm diameter streptavidin coated polystyrene particles (Bangs Laboratories, Ill., USA).
pMHC used for positive and negative control stimulations were A*0201/MLA-001 (peptide […] from modified Melan-A/MART-1) and A*0201/DDX5-001 ([…] from DDX5), respectively.
800.000 beads/200 μl were coated in 96-well plates in the presence of 4×12.5 ng different biotin-pMHC, washed and 600 ng biotin anti-CD28 were added subsequently in a volume of 200 μl. Stimulations were initiated in 96-well plates by co-incubating 1×10^6 CD8+ T cells with 2×10^5 washed coated beads in 200 μl TCM supplemented with 5 ng/ml IL-12 (PromoCell) for 3-4 days at 37° C. Half of the medium was then exchanged by fresh TCM supplemented with 80 U/ml IL-2 and incubating was continued for 3-4 days at 37° C. This stimulation cycle was performed for a total of three times. For the pMHC multimer readout using 8 different pMHC molecules per condition, a two-dimensional combinatorial coding approach was used as previously described (Andersen et al., 2012) with minor modifications encompassing coupling to 5 different fluorochromes. Finally, multimeric analyses were performed by staining the cells with Live/dead near IR dye (Invitrogen, Karlsruhe, Germany), CD8-FITC antibody clone SK1 (BD, Heidelberg, Germany) and fluorescent pMHC multimers. For analysis, a BD LSRII SORP cytometer equipped with appropriate lasers and filters was used. Peptide specific cells were calculated as percentage of total CD8+ cells. Evaluation of multimeric analysis was done using the FlowJo software (Tree Star, Oreg., USA). In vitro priming of specific multimer+CD8+ lymphocytes was detected by comparing to negative control stimulations.

HLA-A*0201 = HLA-A*0201 (Homo sapiens, UniProt P04439, D140Y/D185E/D98H/E176V/E277Q/G131W/G231S/I119V/I121R/I166T/I218V/L300P/L318F/N151K/N90K/P208A/P217A/Q86G/Q94H/R138H/R169H/T345S); experiment: UV-ligand exchange with ELISA of stabilized MHC complexes; format: binding; settings: class symbol
Source text: Candidate peptides for the vaccines according to the present invention were further tested for immunogenicity by in vitro priming assays. The individual peptide-MHC complexes required for these assays were produced by UV-ligand exchange, where a UV-sensitive peptide is cleaved upon UV-irradiation, and exchanged with the peptide of interest as analyzed. Only peptide candidates that can effectively bind and stabilize the peptide-receptive MHC molecules prevent dissociation of the MHC complexes. To determine the yield of the exchange reaction, an ELISA was performed based on the detection of the light chain (β2m) of stabilized MHC complexes. The assay was performed as generally described in Rodenko et al. (Rodenko B, Toebes M, Hadrup S R, van Esch W J, Molenaar A M, Schumacher T N, Ovaa H. Generation of peptide-MHC class I complexes through UV-mediated ligand exchange. Nat Protoc. 2006; 1(3):1120-32.).
96 well MAXISorp plates (NUNC) were coated over night with 2 ug/ml streptavidin in PBS at room temperature, washed 4× and blocked for 30 min at 37° C. in 2% BSA containing blocking buffer. Refolded HLA-A*0201/MLA-001 monomers served as standards, covering the range of 8-500 ng/ml. Peptide-MHC monomers of the UV-exchange reaction were diluted 100 fold in blocking buffer. Samples were incubated for 1 h at 37° C., washed four times, incubated with 2 ug/ml HRP conjugated anti-β2m for 1 h at 37° C., washed again and detected with TMB solution that is stopped with […]. Absorption was measured at 450 nm.

[1] = in vitro immunogenicity, trifluoro-acetate salts of the peptides
[2] = in vitro immunogenicity, responding healthy donors, trifluoro-acetate salts of the peptides

Substance	Wells (CD8+ T cells; [1])	Donors (CD8+ T cells; [2])	Donors (CD8+ T cells)	Exchange yield (HLA-A*0201)
43 (ALFPHLLQPV; listed as Homo sapiens) [compound 43]	+ (<20% = +)	+++ (50%-70%, +++)		
44 (NLLAEIHGV; listed as Homo sapiens) [compound 44]	+ (<20% = +)	++ (20%-49% = ++)		
45 (AIMGFIGFFV; listed as Homo sapiens) [compound 45]	+ (<20% = +)	+ (<20% = +)		
46 (TLTNIIHNL; listed as Homo sapiens) [compound 46]	+ (<20% = +)	+++ (50%-70%, +++)		
47 (GVLENIFGV; listed as Homo sapiens) [compound 47]	+ (<20% = +)	++ (20%-49% = ++)		
48 (GLIEIISNA; listed as Homo sapiens) [compound 48]	+ (<20% = +)	+ (<20% = +)		
52 (ALLERGYSL; listed as Homo sapiens) [compound 52]	+ (<20% = +)	+ (<20% = +)		
53 (YLPHAPPFA; listed as Homo sapiens) [compound 53]	++ (20%-49% = ++)	++ (20%-49% = ++)		
54 (KLVEFDFLGA; listed as Homo sapiens) [compound 54]	+ (<20% = +)	++ (20%-49% = ++)		
55 (SLADFMQEV; listed as Homo sapiens) [compound 55]	+ (<20% = +)	++ (20%-49% = ++)		
56 (SLYKGLLSV; listed as Homo sapiens) [compound 56]	++ (20%-49% = ++)	++++ (>70 = ++++)	100%	
57 (GLAEDIDKGEV; listed as Homo sapiens) [compound 57]	+ (<20% = +)	++ (20%-49% = ++)		
59 (ILVSWLPRL; listed as Homo sapiens) [compound 59]	+ (<20% = +)	+++ (50%-70%, +++)		
60 (VVDKTLLLV; listed as Homo sapiens) [compound 60]	+++ (50%-70%, +++)	++++ (>70 = ++++)	100%	
61 (TLISRLPAV; listed as Homo sapiens) [compound 61]	+ (<20% = +)	+++ (50%-70%, +++)		
62 (ILFPDIIARA; listed as Homo sapiens) [compound 62]	++ (20%-49% = ++)	++++ (>70 = ++++)		
63 (SLAGDVALQQL; listed as Homo sapiens) [compound 63]	+ (<20% = +)	++ (20%-49% = ++)		
64 (AMLAVLHTV; listed as Homo sapiens) [compound 64]	+ (<20% = +)	+++ (50%-70%, +++)		
65 (KVLEILHRV; listed as Homo sapiens) [compound 65]	++ (20%-49% = ++)	+++ (50%-70%, +++)		
66 (KIQEILTQV; listed as Homo sapiens) [compound 66]	+ (<20% = +)	+++ (50%-70%, +++)		
67 (ILQDRLNQV; listed as Homo sapiens) [compound 67]	+ (<20% = +)	++ (20%-49% = ++)		

Substance	Wells (CD8+ T cells; [1])	Donors (CD8+ T cells; [2])	Donors (CD8+ T cells)	Exchange yield (HLA-A*0201)
68 (YVYQNNIYL; listed as Homo sapiens) [compound 68]	+ (<20% = +)	+ (<20% = +)		
69 (AMSSKFFLV; listed as Homo sapiens) [compound 69]	++ (20%-49% = ++)	+++ (50%-70%, +++)		
70 (KILEDVVGV; listed as Homo sapiens) [compound 70]	+ (<20% = +)	+++ (50%-70%, +++)		
71 (KLLEYIEEI; listed as Homo sapiens) [compound 71]	+ (<20% = +)	+++ (50%-70%, +++)		
72 (KLLTEVHAA; listed as Homo sapiens) [compound 72]	+ (<20% = +)	+++ (50%-70%, +++)		
73 (FLLDGSANV; listed as Homo sapiens) [compound 73]	+ (<20% = +)	++ (20%-49% = ++)		
74 (SLLAQNTSWLL; listed as Homo sapiens) [compound 74]	+ (<20% = +)	+++ (50%-70%, +++)		
75 (ALYDSVILL; listed as Homo sapiens) [compound 75]	+ (<20% = +)	++ (20%-49% = ++)		
78 (SLYDNQITTV; listed as Homo sapiens) [compound 78]	++ (20%-49% = ++)	++ (20%-49% = ++)		
79 (SLAPAGVIRV; listed as Homo sapiens) [compound 79]	+ (<20% = +)	++++ (>70 = ++++)		
80 (SLFGNSGILENV; listed as Homo sapiens) [compound 80]	+ (<20% = +)	++ (20%-49% = ++)		
81 (ALYGRLEVV; listed as Homo sapiens) [compound 81]	+ (<20% = +)	++ (20%-49% = ++)		
85 (KIVDFSYSV; listed as Homo sapiens) [compound 85]	++ (20%-49% = ++)	++++ (>70 = ++++)		
86 (AMATESILHFA; listed as Homo sapiens) [compound 86]	+ (<20% = +)	++ (20%-49% = ++)		
87 (RVLPPSALQSV; listed as Homo sapiens) [compound 87]	+ (<20% = +)	+++ (50%-70%, +++)		
88 (SLLESNKDLLL; listed as Homo sapiens) [compound 88]	+ (<20% = +)	++ (20%-49% = ++)		
92 (HLLEDIAHV; listed as Homo sapiens) [compound 92]	+ (<20% = +)	++ (20%-49% = ++)		
AIDGNNHEV (listed as Homo sapiens) [SEQ ID NO 31]				++ (20%-49% = ++)
AILDTLYEV (listed as Homo sapiens) [SEQ ID NO 21]				++ (20%-49% = ++)
AIMGFIGFFV (listed as Homo sapiens) [SEQ ID NO 45]				+ (<20% = +)
ALANQKLYSV (listed as Homo sapiens) [SEQ ID NO 83]				+++ (50%-70%, +++)
